For the assay, the target named is T1, human ClC-2 (hClC-2) Cl^− channel (Homo sapiens, UniProt P51788).
T1 construct: gene CLCN2; recombinant hClC-2 stably expressed in HEK293EBNA cells
T1 sequence (P51788 2-898): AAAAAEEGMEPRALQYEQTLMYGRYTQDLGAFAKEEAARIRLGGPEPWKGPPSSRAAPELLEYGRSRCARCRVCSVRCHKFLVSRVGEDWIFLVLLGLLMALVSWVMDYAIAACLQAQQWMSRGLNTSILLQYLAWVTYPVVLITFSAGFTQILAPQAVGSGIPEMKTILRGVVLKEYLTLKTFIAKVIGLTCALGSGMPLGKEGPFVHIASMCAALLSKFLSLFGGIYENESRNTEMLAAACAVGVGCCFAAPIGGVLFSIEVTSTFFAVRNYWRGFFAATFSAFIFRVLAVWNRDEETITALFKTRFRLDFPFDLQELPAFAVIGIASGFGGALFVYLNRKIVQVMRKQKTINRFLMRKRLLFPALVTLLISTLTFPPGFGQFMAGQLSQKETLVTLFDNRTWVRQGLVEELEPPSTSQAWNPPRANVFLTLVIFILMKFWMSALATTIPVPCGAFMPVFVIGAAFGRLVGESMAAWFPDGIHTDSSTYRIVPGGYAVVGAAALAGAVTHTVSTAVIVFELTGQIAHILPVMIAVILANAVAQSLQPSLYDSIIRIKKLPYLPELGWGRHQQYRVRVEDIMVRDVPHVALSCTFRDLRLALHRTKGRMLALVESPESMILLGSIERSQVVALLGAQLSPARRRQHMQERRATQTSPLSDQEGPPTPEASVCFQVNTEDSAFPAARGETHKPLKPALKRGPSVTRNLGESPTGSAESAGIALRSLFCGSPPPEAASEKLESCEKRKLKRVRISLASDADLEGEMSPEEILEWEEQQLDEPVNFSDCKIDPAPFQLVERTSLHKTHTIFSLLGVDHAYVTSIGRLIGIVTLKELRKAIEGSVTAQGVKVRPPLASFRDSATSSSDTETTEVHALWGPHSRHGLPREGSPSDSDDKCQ
Put plainly: whole cell patch clamp, activation of Cl- currents at -140 mV. Format: cell-based. In general terms: In patch-clamp work, channel activity is measured electrically.

With `CCCCC(F)(F)[C@@]1(O)CC[C@H]2[C@@H](CC(=O)[C@@H]2CCCCCCC(=O)O)O1` [Lubiprostone], the EC50 amounted to 28.2 nM.

What is called EC50 is the concentration giving half of the maximal effect. Read a low EC50 as greater potency.

The values are drawn from PMC3627040, “Methadone but not Morphine Inhibits Lubiprostone-Stimulated Cl^− Currents in T84 Intestinal Cells and Recombinant Human ClC-2, but not CFTR Cl^− Currents” (Cell Biochemistry and Biophysics, 2012).
